Measured values as given in patent publication US20130324428A1, “SPECIFIC BIOMARKER FOR IDENTIFICATION OF EXPOSURE TO LOWER ALIPHATIC SATURATED ALDEHYDES AND THE METHOD OF IDENTIFICATION USING THE SAME” (KOREA INSTITUTE OF SCIENCE AND TECHNOLOGY, priority 2012, published 2013).

Assays:
Assay type in all cases: cell-based, human
A549 cells = assay: in vitro
Protocol: (§1) A549 cells (Korean Cell Line Bank), the human lung cancer tissue derived cell line, were cultured in 100 mm dish containing RPMI (Gibro-BRL, USA) supplemented with 10% FBS until the confluency reached 80%. […] The concentration of vehicle was up to 0.1% in every experiment.
(§2) MTT assay was performed with A549 cell line according to the method of Mossman, et al (J. Immunol. Methods, 65, 55-63, 1983).
(§3) Particularly, the cells were distributed in 24-well plate (3.5×10^4 cells/well) containing RPMI (Gibro-BRL, USA) and then treated with lower aliphatic saturated aldehydes dissolved in DMSO. 48 hours later, 5 mg/ml of MTT (3-4,5-dimethylthiazol-2,5-diphenyltetra zolium bromide) was added thereto, followed by culture at 37° C. for 3 hours. Then, the medium was discarded and the formed formazan crystal was dissolved in 500 μl of DMSO, which was aliquoted in 96-well plate. OD540 was measured.

[1] = test system: B3GALT4 (NM_003782) expression in A549 cells; assay: Oligo microarray gene expression, B3GALT4; details: A549 cells treated 48 hours at the IC20 concentration; Cy5/Cy3 ratio vs untreated control
Protocol: (§4) A549 cells were distributed in 6-well plate at the density of 25×10^4 cells/ml, to which lower aliphatic saturated aldehydes were treated for 48 hours at the concentrations determined in Example <1-2>. Total RNA was extracted from the cells by using trizol reagent according to the manufacturer's protocol (Invitrogen life technologies, USA), followed by purification by using RNease mini kit (Qiagen, USA). Genomic DNA was eliminated by using RNase-free DNase set (Qiagen, USA) during the RNA purification. The amount of total RNA was measured with spectrophotometer, and the concentration was confirmed by ND-1000 Spectrophotometer (Thermo Fisher Scientific Inc., USA) and Agilent 2100 Bioanalyzer (Agilent).
(§5) For oligomicroarray analysis, cDNA was synthesized by using the total RNA obtained from the experimental group treated with lower aliphatic saturated aldehydes prepared in Example <2-1>. 30 μg of the obtained total RNA and 2 μg of oilgo (dT) primer (1 μg/μl) were mixed together, followed by reaction at 65° C. for 10 minutes, which was transferred into ice for annealing. Upon completion of annealing, reagents were added thereto as shown in Table 1 to induce reverse transcription of the annealed RNA. The total RNA extracted from the control group A549 cells was labeled with Cy3-dUTP (green). The total RNA extracted from the experimental group A549 cells treated with lower aliphatic saturated aldehydes was labeled with Cy5-dUTP (red). At that time, the two samples were mixed and purified by using Microcon YM-30 column (Millipore, USA).
(§6) Hybridization and washing processes were performed according to the protocol provided by Ebiogen Inc.
(§7) Labeled cRNA was purified. 600 ng of the purified cRNA was reacted at 60° C. for 30 minutes for fragmentation. The prepared cRNA was mixed with 2×GEx Hybridization Buffer HI-RPM. After well mixing, the mixture was loaded on chip, followed by hybridization in the oven at 65° C. for 17 hours. 17 hours later, the chip was washed with GE Wash Buffer […] and with GE Wash Buffer 2 for 1 minute. Centrifugation was performed with the chip at 800 rpm for 3 minutes, followed by drying thereof.
(§8) Hybridization images on the slide were scanned with Agilent C scanner (Agilent technologies, CA, USA). At that time, the green fluorescent image indicated the activity of gene expressed specifically in the control group, while the red fluorescent image indicated the activity of gene expressed specifically in the experimental group. […] To obtain gene expression rate, the scanned images were analyzed by using Agilent Feature Extraction 10.7.3.1 (Agilent technologies, CA, USA). The extracted data proceeded to normalization by using Agilent GeneSpring GX 11.5.1 (Agilent technologies, CA, USA) to analyze gene expression pattern of each gene. The marker gene for lower aliphatic saturated aldehydes was selected from the obtained data.

[2] = test system: KIF1A (NM_004321) expression in A549 cells; assay: Oligo microarray gene expression, KIF1A; details: A549 cells treated 48 hours at the IC20 concentration; Cy5/Cy3 ratio vs untreated control
Protocol: as §4, §5, §6, §7, §8

[3] = test system: DHRS9 (NM_005771) expression in A549 cells; assay: Oligo microarray gene expression, DHRS9; details: A549 cells treated 48 hours at the IC20 concentration; Cy5/Cy3 ratio vs untreated control
Protocol: as §4, §5, §6, §7, §8

[4] = test system: EMR2 (NM_013447) expression in A549 cells; assay: Oligo microarray gene expression, EMR2; details: A549 cells treated 48 hours at the IC20 concentration; Cy5/Cy3 ratio vs untreated control
Protocol: as §4, §5, §6, §7, §8

[5] = test system: KIAA1199 (NM_018689) expression in A549 cells; assay: Oligo microarray gene expression, KIAA1199; details: A549 cells treated 48 hours at the IC20 concentration; Cy5/Cy3 ratio vs untreated control
Protocol: as §4, §5, §6, §7, §8

in vitro = details: human
Protocol: as §1, §2, §3

Q: Which IC20 (A549 cells) does the source give for `CCCC=O` [butylaldehyde] here?
A: 4600 µM

Q: What about the “Median ratio of microarray, B3GALT4” value [1] of the same compound?
A: 0.498

Q: And the “Median ratio of microarray, KIF1A” value [2]?
A: 14.175

Q: What about the “Median ratio of microarray, DHRS9” value [3] of the same compound?
A: 2.353

Q: And the “Median ratio of microarray, EMR2” value [4]?
A: 8.094

Q: And the “Median ratio of microarray, KIAA1199” value [5]?
A: 1.733

Q: Which results are given for `CCCCCCC=O` [heptanal]?
A: IC20 at 48 h (in vitro): 600 µM; Median ratio of microarray, B3GALT4 [1]: 0.634; Median ratio of microarray, KIF1A [2]: 1.955; Median ratio of microarray, DHRS9 [3]: 2.157; Median ratio of microarray, EMR2 [4]: 2.25; Median ratio of microarray, KIAA1199 [5]: 2.815

Q: With `CCCCCC=O` [hexanal] as the compound, how does the IC20 at 48 h (in vitro) read?
A: 800 µM

Q: What about the “Median ratio of microarray, B3GALT4” value [1] of the same compound?
A: 0.574

Q: What about the “Median ratio of microarray, KIF1A” value [2] of the same compound?
A: 1.682

Q: And the “Median ratio of microarray, DHRS9” value [3]?
A: 1.654

Q: And the “Median ratio of microarray, EMR2” value [4]?
A: 1.89

Q: And the “Median ratio of microarray, KIAA1199” value [5]?
A: 1.736

Q: With `CCCCCCCC=O` [octanal] as the compound, how does the IC20 at 48 h (in vitro) read?
A: 580 µM

Q: And the “Median ratio of microarray, B3GALT4” value [1]?
A: 0.564

Q: And the “Median ratio of microarray, KIF1A” value [2]?
A: 2.262

Q: What about the “Median ratio of microarray, DHRS9” value [3] of the same compound?
A: 3.057

Q: And the “Median ratio of microarray, EMR2” value [4]?
A: 1.785

Q: And the “Median ratio of microarray, KIAA1199” value [5]?
A: 2.294

Q: Which IC20 at 48 h (in vitro) does the source give for `CCC=O` [propionaldehyde] here?
A: 2500 µM

Q: And the “Median ratio of microarray, B3GALT4” value [1]?
A: 0.483

Q: And the “Median ratio of microarray, KIF1A” value [2]?
A: 3.814

Q: And the “Median ratio of microarray, DHRS9” value [3]?
A: 2.988

Q: And the “Median ratio of microarray, EMR2” value [4]?
A: 6.906

Q: What about the “Median ratio of microarray, KIAA1199” value [5] of the same compound?
A: 4.454

Q: What does the source list for `CCCCC=O` [valeraldehyde]?
A: IC20 at 48 h (in vitro): 1700 µM; Median ratio of microarray, B3GALT4 [1]: 0.53; Median ratio of microarray, KIF1A [2]: 7.871; Median ratio of microarray, DHRS9 [3]: 2.088; Median ratio of microarray, EMR2 [4]: 6.242; Median ratio of microarray, KIAA1199 [5]: 3.122
